Experimental data: patent US20180028477A1, “TREATMENT OF CARDIAC REMODELING AND OTHER HEART CONDITIONS” (C & C BIOPHARMA, LLC, priority 2013, published 2018)
“Also recorded” adds a separate entry of the source.

Tests used:
[1] = test system: pressure overload produced by transverse aortic coarctation (TAC) in C57/B16 mice; type: in vivo
Method: […]. Mice were treated with daily injections of MEF2 inhibitor 8MI at the indicated concentrations for two weeks beginning immediately after transverse aortic banding. N=at least 3 per condition. Mice were subjected to either a sham operation (dark gray bars) or TAC (light gray bars). […] Ejection fraction, a measure of contractile function, was determined by echocardiography on a Vevo 770 ultrasound system prior to sacrifice at two weeks.
[…]. TAC has been used extensively to model the clinical hypertrophic stimuli of hypertension, aortic valve disease, and other types of pressure overload. In vivo pressure overload was created in wild type C57/B16 by creation of a surgical restriction in the transverse aorta between the origins of the right and left carotid arteries as previously described in Wei et. al. 2008. Control littermates were subjected to a sham operation. […] Trans-aortic gradients were determined by simultaneous measurements from the right and left carotid arteries using Statham pressure transducers (model P23XL, Viggo-Spectramed, Oxnard, Calif.) zeroed at the level of the right atrium. Pressures were continuously recorded as described in Wei et. al. 2008. […]
C57/B16 mice were treated with 8MI for two weeks and evaluated for cardiac function by echocardiography and for cardiac mass using a standard index of heart weight to tibia length (HW/TL) after sacrifice. […]

[2] = test system: ventricular fibrosis after TAC in mice; test: TAC 21 days: ventricular fibrosis, Masson's Trichrome (Example 5); type: in vivo; conditions: 21 days after TAC
Description: Using cardiac tissue samples obtained from the same mice treated under the experimental conditions described in Example 4, Masson's Trichrome was used to stain fibrotic tissue (FIG. 6A). Fibrotic area was quantified and expressed relative to the total tissue area (FIG. 6B). Ventricular fibrosis was prominent in mice 21 days after TAC, but not in sham-operated mice (FIGS. 6A and 6B).

[3] = test system: cardiac hypertrophy induced by TAC in C57/BL/6 mice; test: TAC 21 days: cardiac mass, geometry, wall thickness, myocyte size (Example 4); type: in vivo; conditions: 21 days after TAC
Method: The effects of 8MI on hypertrophy in a model of moderate pressure overload were tested further (FIGS. 5A-5E). 8MI or its vehicle (DMSO) was administered over a range of concentrations immediately prior to and for 21 days following transverse aortic coarctation (TAC). All experiments were performed on 2-3 month old wild type C57/BL/6 mice. Cardiac hypertrophy was induced by TAC as described in Wei et. al. 2008. Pressure gradients induced by TAC were evaluated postoperatively by pulsed-wave Doppler echocardiography to confirm equivalent gradients in all animals (45±5 mmHg). 8MI was delivered via tail vein injection one day prior to surgical intervention and then daily for 21 days. Blood samples were obtained at sacrifice on day 21 after surgery, and serum was frozen at […] until analysis
Masson's Trichrome was used to visualize cardiac four-chamber anatomy. Paraffin embedded sections were used for staining (FIG. 5B). Representative wheat germ agglutinin (WGA)-stained sections of myocardium from the mice were prepared. For echocardiography (FIG. 5C), mice were placed under anesthesia with 40 mg/kg ketamine and 5 mg/kg xylocaine and secured in a supine position. Mice were evaluated using […] transducer on a Visual Sonics 770 High Resolution Imaging System. B-mode in the short and long axis view of the ventricle was used to evaluate wall motion defects of ventricle and M-mode in long axis view used for the interventricular septal thickness, posterior wall thickness and the left ventricular dimensions in systole and diastole.
Hematoxylin and Eosin (HE) and FITC conjugated WGA (from Invitrogen) were used to evaluate myocardial cell size (FIGS. 5D and 5E). The sizes of cells from at least 4 myocardial sections from 3 mice per condition were measured (FIG. 5E). WGA samples were counterstained with DAPI and images were merged from the DAPI and FITC channels.

[4] = test system: myocyte apoptosis during TAC; test: Myocyte apoptosis in myocardial tissue after TAC, TUNEL assay (Example 10); type: in vivo, mice
Description: In parallel samples from the experiment described in Example 4, apoptosis was quantitated in myocardial tissue from sham- and TAC-operated mice in the presence of vehicle or 8MI. Apoptosis was detected following recommended protocol for the commercially available terminal deoxynucleotidyl transferase-mediated dUTP nick-end labeling (TUNEL) assay kit (Cardiotacs, Trevigne, Gaithersburg, Md.).

MEF2 = MEF2 acetylation in myocardial lysates, immunoprecipitation/Western (Example 9); type: in vivo, mice
Method: Acetyl-MEF2 and acetyl-GATA4 were determined as described in Example 9 in myocardial lysates of TAC- or sham-operated mice treated with the indicated doses of 8MI, or its vehicle (0), as indicated. […] MEF2 acetylation is increased by TAC and reduced by 8MI. Myocardial lysates were immunoprecipitated with either anti-pan MEF2 or GATA4 antibodies, and probed with antibodies against MEF2, GATA4 or acetyl-lysine (control). The quantified data shown in FIG. 9 is from 3 mice per group and normalized to total acetyl-lysine (western blots are not shown).
MEF2 acetylation was determined in myocardial tissue from sham- and TAC-operated mice in the presence of vehicle or 8MI, under the experimental conditions described in Example 4. Protein samples were collected in RIPA (Sigma). […] of protein samples were incubated with 5 μg of acetyl lysine or GATA4 antibodies (Upstate, Charlottesville, Va.) or MEF2 antibody (Santa Cruz Biotechnology, Santa Cruz, Calif.) (5 μg). The immune-complexes were captured using TrueBlot sepharose beads and subjected to Western analysis. The immune complexes were resolved on SDS-PAGE and transferred to nitrocellulose membranes. Membranes were blocked with 5% milk in 0.5% TBS-T for 1 hour at room temperature followed by incubation in primary antibody at appropriate dilutions overnight. […]

## Nc1ccccc1NC(=O)CCCCCC(=O)Nc1cccc(Br)c1 [8MI]
[1]; mouse, in vivo
  mortality: no mortality
[1]; two weeks after TAC, 5, 20 and 40 μg/g 8MI daily
  TAC-induced reduction of Left Ventricular Ejection Fraction (LVEF): largely prevented this impairment of function
[2]; dose range
  fibrotic response (fibrotic area relative to total tissue area): significantly reduced in a dose-dependent manner; also recorded: reduces fibrosis
[2]; highest dosage
  fibrotic response (fibrotic area relative to total tissue area) at the highest dosage: eliminated
[3]
  effect on heart weight in comparison to previously published results for TSA: significantly superior effect
  reduction of myocyte cross sectional area in comparison to previously published results for TSA: significantly superior effect
[3]; 40 mg/kg
  HW/TL at the highest dose: normal levels
[3]; WGA-stained sections
  TAC-induced increase of myocyte cross-sectional area / myocyte size: effectively eliminated this 2.2-fold increase; also recorded: normalization of myocyte size
[3]; dose-dependent
  remodeling of the myocardium (four-chamber sections): prevented remodeling of the myocardium; also recorded: normalization of cardiac geometry
[3]; highest dose of 8MI (vehicle 35.9%±1.0%)
  increase of echocardiographic wall thickness: 6.9%±1.4%
[3]; indicated doses
  echocardiographic posterior wall thickness: normalization of echocardiographic posterior wall thickness
[3]; indicated doses up to 40 mg/kg, tail vein daily
  TAC-induced increase of heart weight (HW/TL): blunted the increase of heart weight in a dose-dependent manner; also recorded: normalization of cardiac mass
[4]; 40 mg/kg
  apoptosis in TAC-operated mice at the highest dose: reduced to approximately the same level of apoptosis observed for the sham-operated mice
[4]; dose range
  apoptosis in TAC-operated mice: reduced in TAC-operated mice by 8MI in a dose-dependent manner; also recorded: prevented myocyte apoptosis during TAC in a dose dependent manner
MEF2; TAC-operated mice, increasing doses of 8MI
  TAC-induced acetyl-MEF2 content: reduced the acetyl-MEF2 content to level at or below those of the sham-operated mice; also recorded: reduced
MEF2; sham-operated mice, maximum dose (40 mg/kg) versus vehicle (DMSO), 40 mg/kg
  total acetyl-MEF2 content, basal: not different; also recorded: does not reduce acetyl-MEF2 levels
